In ChEMBL document CHEMBL1129696, “5- and 7-oxa trinems: their synthesis and biological evaluation” (1996):
In brackets after ≈: the same amount, converted by molar mass.

What was measured:
Type in all cases: functional
Bacteroides fragilis = experiment: In vitro antibacterial activity against Bacteroides fragilis 2017
Clostridium perfringens = experiment: In vitro antibacterial activity against Clostridium perfringens 615
Enterococcus faecalis = experiment: In vitro antibacterial activity against Enterococcus faecalis 850
Escherichia coli [1] = experiment: In vitro antibacterial activity agains Escherichia coli 1852
Streptococcus pneumoniae = experiment: In vitro antibacterial activity against Streptococcus pneumoniae 3512
Staphylococcus aureus = experiment: In vitro antibacterial activity against Staphylococcus aureus 853
Escherichia coli [2] = experiment: In vitro antibacterial activity against Escherichia coli 1850
Escherichia coli [3] = experiment: In vitro antibacterial activity against Escherichia coli 1850.

In the case of `CO[C@H]1CCC[C@H]2C1=C(C(=O)O)N1C(=O)[C@H]([C@@H](C)O)[C@@H]21` [SANFETRINEM], the MIC (Bacteroides fragilis) is reported as 0.06 µg/mL (≈ 0.213 µM), the MIC (Clostridium perfringens) is reported as 0.03 µg/mL (≈ 0.107 µM) and the MIC (Enterococcus faecalis) is reported as 1 µg/mL (≈ 3.55 µM). For the same compound, the MIC (Escherichia coli [1]) was 0.5 µg/mL (≈ 1.78 µM), the MIC (Streptococcus pneumoniae) was < 0.01 µg/mL and the MIC (Staphylococcus aureus) was 0.2 µg/mL (≈ 0.711 µM). It also gave an MIC (Escherichia coli [2]) of 0.5 µg/mL (≈ 1.78 µM).
`C[C@@H](O)[C@H]1C(=O)N2C(C(=O)[O-])=C3COCC[C@@H]3[C@H]12.[K+]` showed an MIC (Bacteroides fragilis) of 0.2 µg/mL, an MIC (Clostridium perfringens) of 0.5 µg/mL and an MIC (Enterococcus faecalis) of 8 µg/mL. It also gave an MIC (Escherichia coli [1]) of 0.5 µg/mL, an MIC (Streptococcus pneumoniae) of 0.06 µg/mL and an MIC (Staphylococcus aureus) of 0.5 µg/mL. It also gave an MIC (Escherichia coli [2]) of 0.5 µg/mL.
Compound `C[C@@H](O)[C@H]1C(=O)N2C(C(=O)[O-])=C3CCCC[C@@H]3[C@H]12.[K+]` has an MIC (Bacteroides fragilis) of 1 µg/mL, an MIC (Clostridium perfringens) of 0.1 µg/mL and an MIC (Enterococcus faecalis) of 8 µg/mL. For the same compound, the MIC (Escherichia coli [1]) was 1 µg/mL, the MIC (Streptococcus pneumoniae) was 0.06 µg/mL and the MIC (Staphylococcus aureus) was 1 µg/mL. The MIC (Escherichia coli [2]) was 1 µg/mL.
`C[C@@H](O)[C@H]1C(=O)N2C(C(=O)[O-])=C3CCCC[C@H]3[C@H]12.[K+]` was tested, and the MIC (Bacteroides fragilis) was 0.5 µg/mL, the MIC (Clostridium perfringens) was 1 µg/mL and the MIC (Enterococcus faecalis) was 16 µg/mL. The MIC (Escherichia coli [3]) was 2 µg/mL, the MIC (Escherichia coli [1]) was 2 µg/mL and the MIC (Streptococcus pneumoniae) was 0.5 µg/mL. For the same compound, the MIC (Staphylococcus aureus) was 1 µg/mL.
`C[C@@H](O)[C@H]1C(=O)N2C(C(=O)[O-])=C3CCCO[C@@H]3[C@H]12.[K+]` was tested, and the MIC (Bacteroides fragilis) was 0.1 µg/mL, the MIC (Clostridium perfringens) was 0.06 µg/mL and the MIC (Enterococcus faecalis) was 1 µg/mL. For the same compound, the MIC (Escherichia coli [1]) was 1 µg/mL, the MIC (Streptococcus pneumoniae) was 0.06 µg/mL and the MIC (Staphylococcus aureus) was 0.5 µg/mL. The MIC (Escherichia coli [2]) was 1 µg/mL.
`C[C@@H](O)[C@H]1C(=O)N2C(C(=O)[O-])=C3COCC[C@H]3[C@H]12.[K+]` gave an MIC (Bacteroides fragilis) of 0.1 µg/mL, an MIC (Clostridium perfringens) of 2 µg/mL and an MIC (Enterococcus faecalis) of 32 µg/mL. The MIC (Escherichia coli [1]) was 4 µg/mL, the MIC (Streptococcus pneumoniae) was 0.1 µg/mL and the MIC (Staphylococcus aureus) was 2 µg/mL. For the same compound, the MIC (Escherichia coli [2]) was 2 µg/mL.
`C[C@@H](O)[C@H]1C(=O)N2C(C(=O)[O-])=C3CCCO[C@H]3[C@H]12.[K+]` gave an MIC (Bacteroides fragilis) of 0.2 µg/mL, an MIC (Clostridium perfringens) of 1 µg/mL and an MIC (Enterococcus faecalis) of 16 µg/mL. It also gave an MIC (Escherichia coli [1]) of 4 µg/mL, an MIC (Streptococcus pneumoniae) of 0.2 µg/mL and an MIC (Staphylococcus aureus) of 1 µg/mL. For the same compound, the MIC (Escherichia coli [2]) was 2 µg/mL.
